The values below come from publication PMC3038857, “Using Nuclear Receptor Activity to Stratify Hepatocarcinogens” (PLoS ONE, 2011).

Data set [1] addresses T1, PPARG (peroxisome proliferator-activated receptor gamma) (Homo sapiens, UniProt P37231).
T1 construct: expressed in transfected cells; host or cells: HepG2
T1 sequence (P37231 1-505): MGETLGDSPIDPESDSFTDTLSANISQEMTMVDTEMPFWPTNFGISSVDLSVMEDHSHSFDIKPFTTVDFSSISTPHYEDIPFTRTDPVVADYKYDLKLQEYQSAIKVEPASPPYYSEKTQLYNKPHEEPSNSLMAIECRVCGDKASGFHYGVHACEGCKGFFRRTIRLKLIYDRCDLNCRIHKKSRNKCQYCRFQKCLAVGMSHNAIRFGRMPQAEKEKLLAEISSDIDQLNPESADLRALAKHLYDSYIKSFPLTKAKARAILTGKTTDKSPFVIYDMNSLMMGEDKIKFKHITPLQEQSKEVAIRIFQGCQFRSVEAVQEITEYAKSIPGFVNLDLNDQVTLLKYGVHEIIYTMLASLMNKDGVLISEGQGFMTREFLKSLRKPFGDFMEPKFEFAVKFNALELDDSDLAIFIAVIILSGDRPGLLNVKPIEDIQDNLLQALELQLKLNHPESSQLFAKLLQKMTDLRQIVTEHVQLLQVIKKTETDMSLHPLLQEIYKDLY
Nature of the data set: ATG_PPARg_TRANS: Factorial reporter gene assay (HepG2). Type of data set: cell-based. Conditions: HepG2 reporter. The essentials:
(§1)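 Seven test concentrations were run, beginning at the MTC and diluted three-fold serially. PXRE activity came from cis reporters, a 48-site MRTU library in HepG2 hepatoma cells. ERRg, FXR and PPARg activity came from trans one-hybrid reporters, an additional 25-member MRTU set.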

A further data set concerns the target T2, PXR (NR1I2) (Homo sapiens, UniProt O75469).
T2 sequence (O75469 1-434): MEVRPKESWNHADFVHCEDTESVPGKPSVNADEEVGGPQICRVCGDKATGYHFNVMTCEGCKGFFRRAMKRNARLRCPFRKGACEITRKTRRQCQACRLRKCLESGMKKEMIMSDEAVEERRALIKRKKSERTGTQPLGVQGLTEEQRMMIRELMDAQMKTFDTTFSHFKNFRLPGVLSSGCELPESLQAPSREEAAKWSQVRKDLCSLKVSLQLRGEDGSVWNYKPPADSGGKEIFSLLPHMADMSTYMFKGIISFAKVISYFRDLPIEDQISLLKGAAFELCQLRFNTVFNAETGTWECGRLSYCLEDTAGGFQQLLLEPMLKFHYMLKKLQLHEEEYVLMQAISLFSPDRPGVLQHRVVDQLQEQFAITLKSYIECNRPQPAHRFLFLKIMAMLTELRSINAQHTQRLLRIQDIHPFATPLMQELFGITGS
The data set can be described thus: ATG_PXRE_CIS: Factorial reporter gene assay (HepG2). The class given is cell-based. Details: endogenous in cells; host or cells: HepG2. The essentials: as §1

In data set [2] the test system is Rat Liver. The settings on record: chronic study, rat liver; ref ToxRefDB; cited from earlier work.
Data set [3] addresses T3, ESR1 (estrogen receptor 1) (Homo sapiens, UniProt P03372).
T3 construct: expressed in transfected cells; host or cells: HepG2
The data set can be described thus: ATG_ERa_TRANS: Factorial reporter gene assay (HepG2). Type of data set: cell-based. The protocol:
(§2) A multiple reporter transcription unit (MRTU) library consisting of 48 transcription factor binding sites was transfected into the HepG2 human liver hepatoma cell line. In addition to the cis-acting reporter genes (CIS), a modification of the approach was used to generate a trans-system (TRANS) with a mammalian one-hybrid assay consisting of an additional 25 MRTU library reporting the activity of nuclear receptor super-family members. […] These assays were performed by Attagene Inc. (Morrisville NC) under contract to EPA.
(§3) In addition to the cis-acting reporter genes (CIS), a modification of the approach was used to generate a trans-system (TRANS) with a mammalian one-hybrid assay consisting of an additional 25 MRTU library reporting the activity of nuclear receptor super-family members. […] Chemicals were then tested in the CIS and TRANS assays at seven concentrations starting at the MTC and followed by three-fold serial dilutions. These assays were performed by Attagene Inc. (Morrisville NC) under contract to EPA. Detailed description of the methods, data and analysis methods for this dataset will be presented in a separate publication.

Data set [4] addresses T4, ERa (ESR1) (Homo sapiens, UniProt P03372).
T4 construct: expressed in transfected cells; host or cells: HEK293
The data set can be described thus: NCGC_ERalpha_Antagonist: GAL4 BLAM Reporter gene assay: ERa. Type of data set: cell-based. Conditions: antagonist mode.

Another data set has as its system ABCB11. Nature of the data set: CLZD_ABCB11: Change in expression of ABCB11 (primary human hepatocytes). Conditions: 24 hr. The class given is cell-based. The protocol: This is a collection of multiplexed gene expression assays focused on Phase I and II xenobiotic metabolizing enzymes and transporters. Human primary cell cultures were treated with chemicals at 5 concentrations (0.004-40 [drawing 42] M) for 6, 24 and 48 hr. Concentration- and time-response profiles of chemicals were measured by the expression of key nuclear receptor target genes, activities of CYP1A enzymes (EROD), and cell morphology. Fourteen gene targets were monitored by quantitative nuclease protection assay including: six representative cytochrome P-450 genes, four hepatic transporters, three Phase II conjugating enzymes, and one endogenous metabolism gene involved in cholesterol synthesis. The target genes associated with nuclear receptor pathways are as follows: [drawing 43] and [drawing 44] with [drawing 45]; [drawing 46] , [drawing 47] , [drawing 48] , [drawing 49] , [drawing 50] and [drawing 51] with [drawing 52]; [drawing 53] , [drawing 54] , [drawing 55] and [drawing 56] with [drawing 57]; [drawing 58] with [drawing 59]; and [drawing 60] with [drawing 61] . Assays were run in primary human hepatocyte cultures by CellzDirect Invitrogen Inc. (Durham, NC), in collaboration with EPA.
Multiplexed Gene Expression in Human Primary Hepatocytes: This is a collection of multiplexed gene expression assays focused on Phase I and II metabolic enzymes and transporters. […] Fourteen gene targets were monitored by quantitative nuclease protection assay: six representative cytochrome P450 genes, four hepatic transporters, three Phase II conjugating enzymes, and one endogenous metabolism gene involved in cholesterol synthesis. Cells were exposed at 5 concentrations (0.004-40 µM) for 6, 24 or 48 hr. Gene targets are sentinels for five nuclear receptor signaling pathways: AhR, CAR, PXR, FXR, and PPARα. All gene are associated with nuclear receptor pathways: CYP1A1 and CYP1A2 with AHR; ABCB1, ABCG2, CYP2B6, CYP2C9, CYP2C19 and UGT1A1 with CAR; CYP3A4, GSTA2, SLCO1B1 and SULT2A1 with PXR; HMGCS2 with PPARA; and ABCB11 with FXR. […] Detailed description of the methods, data and analysis methods for this dataset will be presented in a separate publication.

Data set [5] concerns Rat Liver. The settings on record: chronic study, rat liver; ref ToxRefDB; cited from earlier work. This is another data set of the same source.
A further data set addresses T5, CAR (NR1I3) (Homo sapiens, UniProt Q14994).
T5 sequence (Q14994 1-352): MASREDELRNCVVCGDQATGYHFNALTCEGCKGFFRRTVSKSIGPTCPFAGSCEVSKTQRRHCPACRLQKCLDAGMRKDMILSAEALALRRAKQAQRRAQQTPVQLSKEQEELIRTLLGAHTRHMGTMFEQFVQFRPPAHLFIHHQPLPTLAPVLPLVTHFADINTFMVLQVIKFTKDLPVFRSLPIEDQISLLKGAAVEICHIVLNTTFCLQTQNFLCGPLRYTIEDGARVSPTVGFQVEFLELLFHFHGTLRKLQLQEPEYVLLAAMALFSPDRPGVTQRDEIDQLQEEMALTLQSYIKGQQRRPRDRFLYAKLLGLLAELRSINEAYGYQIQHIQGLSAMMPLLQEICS
The data set can be described thus: ATG_PBREM_CIS: Factorial reporter gene assay (HepG2). The class given is cell-based. Conditions: HepG2 reporter. More on the design: endogenous in cells; host or cells: HepG2. The protocol:
as §2, §3

For data set [6], the system named is Rat Liver. Conditions: chronic study, rat liver; ref ToxRefDB; cited from earlier work. This is another data set of the same source.
Data set [7] addresses T3, ESR1 (estrogen receptor 1). The data set can be described thus: ATG_ERE_CIS: Factorial reporter gene assay (HepG2). The class given is cell-based. On the procedure: as §2, §3
A further data set concerns CYP1A2. The data set can be described thus: CLZD_CYP1A2: Change in expression of CYP1A2 (primary human hepatocytes). Type of data set: cell-based. The settings on record: 24 hr. The essentials:
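Read-out: mRNA change by multiplexed quantitative nuclease protection assay. Primary human hepatocytes; 5 concentrations, 0.004-40 µM; exposures 6, 24, 48 hr.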

The test system of the next data set is CYP2B6. Nature of the data set: CLZD_CYP2B6: Change in expression of CYP2B6 (primary human hepatocytes). The class given is cell-based. Conditions: 24 hr. The gist of the method:
(§4)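 Primary human hepatocyte cultures were exposed to test chemicals at 5 concentrations (0.004-40 µM) for 6, 24 or 48 hr.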

Data set [8] addresses T4, ERa (ESR1). Nature of the data set: NCGC_ERalpha_Agonist: GAL4 BLAM Reporter gene assay: ERa. Type of data set: cell-based. The settings on record: agonist mode. On the procedure: These assays measure binding constants and enzyme inhibition values for nuclear receptors. The targets include [drawing 67] , [drawing 68] , [drawing 69] , [drawing 70] , [drawing 71] , [drawing 72] , [drawing 73] , [drawing 74] , [drawing 75] and [drawing 76] . Each of the nuclear receptor targets was measured in agonist mode. Assays were run at the NIH Chemical Genomics Center (Rockville, MD).
Cell-based HTS Assays: These assays measuring binding constants and enzyme inhibition values for nuclear receptors. The targets include AR, ER, FXR, LXR, PPARα, PPARδ, PPARγ, RXRα, RXRβ and PXR. Each of the nuclear receptor targets was measured in both agonist and antagonist mode, but the antagonist data is still undergoing analysis due to possible interference between cytotoxicity and assay activity, so antagonist mode data were not used in the present analysis. Assays were run at the NIH Chemical Genomics Center (Rockville, MD) as part of the Tox21 collaboration. […] The R^2 was required to be ≥0.5. Values where only the highest concentration exceeded 50% activity were excluded to eliminate weak or false positives. Detailed description of the methods, data and analysis methods for this dataset will be presented in a separate publication.

A further data set has as its system CYP3A4. Nature of the data set: CLZD_CYP3A4: Change in expression of CYP3A4 (primary human hepatocytes). Type of data set: cell-based. The settings on record: 24 hr. The gist of the method: as §4

T4 sequence (P03372 whole entry): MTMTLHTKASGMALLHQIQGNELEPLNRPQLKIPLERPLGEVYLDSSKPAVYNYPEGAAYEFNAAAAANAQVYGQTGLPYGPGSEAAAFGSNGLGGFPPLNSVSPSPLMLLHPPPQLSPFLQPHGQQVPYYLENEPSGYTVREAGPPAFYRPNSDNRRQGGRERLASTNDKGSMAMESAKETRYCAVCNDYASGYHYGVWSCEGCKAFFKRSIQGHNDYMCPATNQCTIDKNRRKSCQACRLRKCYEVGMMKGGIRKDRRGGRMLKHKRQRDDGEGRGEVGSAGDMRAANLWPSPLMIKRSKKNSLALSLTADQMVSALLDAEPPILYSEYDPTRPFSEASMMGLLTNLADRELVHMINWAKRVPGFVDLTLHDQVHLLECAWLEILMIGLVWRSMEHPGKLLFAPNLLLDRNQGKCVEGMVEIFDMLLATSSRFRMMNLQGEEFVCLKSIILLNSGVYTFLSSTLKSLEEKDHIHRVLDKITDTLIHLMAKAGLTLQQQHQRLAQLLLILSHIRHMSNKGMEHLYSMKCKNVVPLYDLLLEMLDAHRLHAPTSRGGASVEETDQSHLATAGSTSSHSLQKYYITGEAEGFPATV
T3 sequence (P03372 whole entry): as above

In the case of `CC(C)(C)c1ccc(CSc2cnn(C(C)(C)C)c(=O)c2Cl)cc1` [r272], in [1], the ATG_PPARg_TRANS came to 4.854. Besides, the ATG_PXRE_CIS on PXR (NR1I2) (HepG2 reporter) came to 5.444. In the data set on Rat Liver [2], the CHR_Rat_Liver_2_PreneoplasticLesion is reported as 0. Besides, the ATG_ERa_TRANS in [3] (HepG2 reporter) is 4.367. The NCGC_ERalpha_Antagonist at ERa (ESR1) [4] is given as 5.155. In addition, the CLZD_ABCB11_24 with ABCB11 is 5.168. In the data set with Rat Liver [5], the CHR_Rat_Liver_1_AnyLesion was 0. In addition, on CAR (NR1I3), the ATG_PBREM_CIS is reported as 5.699. Further, the CHR_Rat_Liver_3_NeoplasticLesion with Rat Liver [6] is listed as 0. In data set [7] (HepG2 reporter), this molecule yielded an ATG_ERE_CIS of 4.959.

For `COc1ccc(C(c2ccc(OC)cc2)C(Cl)(Cl)Cl)cc1` [row 201], in the data set with CYP1A2, the CLZD_CYP1A2_24 came to 5.201. The molecule also came in with a CLZD_CYP2B6_24 in the data set on CYP2B6 of 5.24. Also, the ATG_PXRE_CIS on PXR (NR1I2) (HepG2) was 5.036. Also, the ATG_ERa_TRANS in [3] (HepG2) is given as 5.569. The molecule further gave an NCGC_ERalpha_Antagonist at ERa (ESR1) [4] of 4.409. The same molecule showed an NCGC_ERalpha_Agonist on ERa (ESR1) [8] of 5.406. For the same molecule, the CLZD_CYP3A4_24 in the data set on CYP3A4 amounted to 4.692. The ATG_ERE_CIS in data set [7] (HepG2) is listed as 5.398.
